Consider six compounds from patent US7432296B2, “Pharmaceutical formulations containing substituted 2-aryl-aminoacetic acid compounds and/or substituted 2-heteroaryl-aminoacetic acid compounds” (Gruenenthal GmbH, priority 2003, dated 2008).

The target in test [1] is T1, glycine binding site of the NMDA receptor channel (Rattus norvegicus, UniProt P35439).
T1 construct: from tissue; host or cells: rat brain cortex and hippocampus membrane homogenate (male Wistar rats)
In words: Receptor binding study (glycineB binding site of the NMDA receptor channel), displacement of (3H)-MDL 105.519. Conditions: 10 μM of compound, rat brain membrane homogenate (cortex and hippocampus); for inhibition at 10 µM: read-out: Inhibition % (percentage fraction of bound radioactive ligand displaced from its specific binding). As to the method:
(a) Receptor Binding Study (GlycineB Binding Site of the NMDA Receptor Channel)
The affinity of the compounds of the general formula I used according to the invention for the glycine binding site of the NMDA receptor channel is determined using brain membrane homogenates (homogenate of cortex and hippocampus area from the brain of male rats, Wistar strain), as for example described in B. M. Baron, B. W. Siegel, B. L. Harrison, R. S. Gross, C. […] The corresponding literature description is hereby introduced as a reference and is deemed to be part of the disclosure.
To this end, the cortex and hippocampus are dissected out of freshly harvested rat brains and homogenised with ice cooling in 5 mmol/l of TRIS-acetate buffer, 0.32 mol/l of sucrose, pH 7.4 (10 ml/g fresh weight) using a Potter homogeniser (Braun/Melsungen, 10 piston strokes at 500 rpm) and then centrifuged for 10 minutes at 1,000 g and 4° C. The first supernatant is collected and the sediment again homogenised with ice cooling with 5 mmol/l of tris-acetate buffer, 0.32 mol/l of sucrose, pH 7.4 (5 ml/g of original fresh weight) with the Potter homogeniser (10 piston strokes at 500 rpm) and centrifuged for 10 minutes at 1,000 g and 4° C. The resultant supernatant is combined with the supernatant from the first centrifugation and centrifuged at 17.000 g for 20 minutes at 4° C. The supernatant after this centrifugation is discarded and the membrane sediment resuspended with 5 mmol/l of TRIS-acetate buffer, pH 8.0 (20 ml/g of original fresh weight) and homogenised with 10 piston strokes at 500 rpm.
The membrane homogenate is then incubated for 1 hour at 4° C. and centrifuged for 30 minutes at 50,000 g and 4° C. The supernatant is discarded and the centrifuge tubes containing the membrane sediment are sealed with Parafilm and frozen for 24 hours at −20° C. On the following day, the membrane sediment is thawed and resuspended with ice-cold 5 mmol/l TRIS-acetate buffer, 0,1% saponin (wt./vol.), pH 7.0 (10 ml/g of original fresh weight) and homogenised with 10 piston strokes at 500 rpm and then centrifuged for 20 minutes at 50.000 g and 4° C. The resultant supernatant is discarded and the sediment resuspended in a small volume with 5 mmol/l of TRIS-acetate buffer, pH 7.0 (approx. 2 ml/g of original fresh weight) and again homogenised with 10 piston strokes at 500 rpm. After determination of the protein content, the membrane homogenate is adjusted with 5 mmol/l TRIS-acetate buffer, pH 7.0, to a protein concentration of 10 mg of protein/ml and frozen in aliquots until used for testing.
The receptor binding test is performed by thawing aliquots, diluting them 1:10 with 5 mmol/l TRIS-acetate buffer, pH 7.0, homogenising them with ice-cooling with 10 piston strokes at 500 rpm with the Potter homogeniser (10 piston strokes at 500 rpm) and centrifuging them for 60 minutes at 55,000 g at 4° C. The supernatant is decanted and the membrane sediment adjusted with ice-cold 50 mmol/l TRIS-acetate buffer, pH 7.0, to a protein concentration of 1 mg/ml and again homogenised with 10 piston strokes at 500 rpm and kept in suspension in an ice bath with stirring on a magnetic stirrer. This membrane homogenate is used in the receptor binding test in a quantity of 100 µl per 1 ml batch (0.1 mg of protein/ml in the final batch). […] The level of nonspecific binding is determined in the presence of 1 mmol/l of glycine.
In further batches, the compounds used according to the invention are added in concentration series and the displacement of the radioactive ligand from its specific binding at the glycine-binding site of the NMDA receptor channel is determined. Each of the triplicate batches is incubated for 120 minutes at 4° C. and then harvested by filtration through glass fibre filter mats (GF/B) in order to determine the radioactivity bound to the membrane homogenate.

In test [2] the test system is formaldehyde-induced nociception. In words: Formaldehyde test (mouse), second (late) phase. The format is in vivo. The note with it: male NMRI mice, percentage change of the control. The procedure:
(b) Formaldehyde Test (Mouse)
The investigations for determining the antinociceptive action of the substituted 2-arylaminoacetic acid compounds and/or substituted 2-heteroarylaminoacetic acid compounds of the above general formula I used according to the invention are carried out by the formaldehyde test on male albino mice (NMRI, 25-35 g, Iffa, Credo, Belgium).
In the formaldehyde test, a distinction is drawn between the first (early) phase (0-15 min after formaldehyde injection) and the second (late) phase (15-60 min after formaldehyde injection) (D. Dubuisson et al., Pain, vol. 4, pp. 161-174 (1977)). The early phase, being a direct response to the formaldehyde injection, is considered to be a model of acute pain, while the late phase is considered to be a model of persistent (chronic) pain (T. J. Coderre et al., Pain, vol. 52, pp. 259-285 (1993)). The corresponding literature descriptions are hereby introduced as a reference and are deemed to be part of the disclosure. […]
For the investigation period in the second (late) phase of the formaldehyde test, nociceptive behaviour is continuously recorded by observing the animals. […] On the basis of the quantification of the pain behaviour, action in the formaldehyde test is determined as a percentage change of the control. […]

Structures can show the parent of a compound that is named as a salt.

By inhibition is commonly meant the share of the control response that was lost under treatment. For the compound `O=C(O)C(Nc1cc(Cl)cc(Cl)c1)c1cccc2c1Sc1ccccc1S2` (centres unmarked) [Example 11, (3,5-Dichlorophenylamino)-(thianthren-1-yl)acetic acid, sodium salt], the inhibition at 10 µM in test [1] is 25%.
As for `CSc1ccc(C(Nc2cc(Cl)cc(Cl)c2)C(=O)O)cc1` (centres unmarked) [Example 13, (3,5-Dichlorophenylamino)-(4-methylsulfanylphenyl)acetic acid, sodium salt], the inhibition at 10 µM in test [1] was found to be 83%.
As to `O=C(O)C(Nc1cc(Cl)cc(Cl)c1)c1cccc2c1sc1ccccc12` (centres unmarked) [Example 2, (Dibenzothiophen-4-yl)-(3,5-dichlorophenylamino)acetic acid], the inhibition at 10 µM in test [1] was 33%.
Same read-out and setting: the same measure for `O=C(O)C(Nc1cc(Cl)cc(Cl)c1)c1cccc2c1Oc1ccccc1S2` (centres unmarked) [Example 10, (3,5-Dichlorophenylamino)-(phenoxathiin-4-yl)acetic acid, sodium salt]: 38%.
On to `CSc1ccc(C(Nc2cc(Cl)cc(Cl)c2)C(=O)O)cc1` (centres unmarked) [Example 6, (3,5-Dichlorophenylamino)-(4-methylsulfanylphenyl)acetic acid], for which the “Inhibition % (percentage fraction of bound radioactive ligand displaced from its specific binding)” value in test [1] is listed as 87%. Also, the “Inhibition (at dose)” value in test [2] (at 46.4 mg/kg) is 31% (at 46.4 mg/kg).
In the case of `CSc1ccccc1C(Nc1cc(Cl)cc(Cl)c1)C(=O)[O-].[Na+]` (centres unmarked) [Example 12, (3,5-Dichlorophenylamino)-(2-methylsulfanylphenyl)acetic acid, sodium salt], in test [1], the inhibition at 10 µM was 39%. In addition, the “Inhibition (at dose)” value in test [2] (at 31.6 mg/kg) was 66% (at 31.6 mg/kg).
